Reference: the supplement of paper PMC10307832

Columns and labels:
Trametinib = compound: CC(=O)Nc1cccc(-n2c(=O)n(C3CC3)c(=O)c3c(Nc4ccc(I)cc4F)n(C)c(=O)c(C)c32)c1 [Trametinib]; experiment: relative viability (nuclei count vs DMSO), 5 days (fraction); higher = more cells survive
Procedure, shortened: (§1)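 Vehicle-anchored 1536-well plates of lung cancer cell lines, held overnight at 37 °C, were pinned with five library-drug doses (not always all listed) spaced by √10. No medium change followed over the next 5 days, after which the cells were fixed, permeabilised and Hoechst-stained together and imaged at 4×. Nuclei were counted with MetaXpress, and viability is treated-well nuclei over vehicle-well nuclei, taken as a median across plates. Plates passed with control CV below 25% and at least one doubling.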

[1] = compound: CN1C=C(C2=CC=CC=C21)/C=C\3/C4=C(C=CC=N4)NC3=O; experiment: as above
Procedure, shortened: as §1

Row | Cell Line | relative viability (Trametinib; 0.0025 µM) | relative viability (Trametinib; 0.007906 µM) | relative viability (Trametinib; 0.02 µM, anchor plate) | relative viability (Trametinib; 0.025 µM) | relative viability (Trametinib; 0.07906 µM) | relative viability (Trametinib; 0.25 µM) | relative viability ([1]; 0.02 µM) | relative viability ([1]; 0.06325 µM) | relative viability ([1]; 0.6325 µM) | relative viability ([1]; 2 µM) | relative viability ([1]; 0.2 µM)
1 | SW 900 | 0.713 | 0.811 | 0.808 | 0.751 | 0.771 | 0.19 | 0.969 | 0.79 | 1.02 | 0.987 | 
2 | PC-3 [JPC-3] | 1.03 | 0.916 | 0.7 | 0.843 | 0.764 | 0.637 | 1.03 | 1.02 | 0.975 | 0.989 | 0.859
3 | NCI-H1703 | 0.778 | 0.906 |  | 0.825 | 0.875 | 0.684 | 0.943 | 0.827 | 0.9 | 0.776 | 0.8
4 | EPLC-272H | 0.844 | 0.644 | 0.287 | 0.503 | 0.327 | 0.188 | 0.921 | 0.828 | 0.645 | 0.869 | 0.639
5 | NCI-H1792 | 0.844 | 0.856 | 0.475 | 0.477 | 0.387 | 0.281 | 0.88 | 0.979 | 0.829 | 0.957 | 0.69
6 | NCI-H2085 | 0.913 | 0.823 | 0.504 | 0.754 | 0.783 | 0.729 | 1.01 | 0.943 | 1.03 | 0.993 | 0.942
7 | LK-2 | 0.93 | 0.832 | 0.761 | 0.989 | 0.757 | 0.388 |  | 0.697 | 0.776 | 0.975 | 0.652
8 | NCI-H1395 | 1.03 | 0.83 | 1.03 | 0.69 | 0.67 | 0.523 | 0.818 | 0.894 | 0.878 | 0.785 | 0.632
9 | ABC-1 | 0.963 | 0.908 |  | 0.749 | 0.547 | 0.333 | 0.829 | 0.896 | 0.857 | 0.764 | 0.709
10 | RERF-LC-KJ | 0.969 | 0.926 | 0.873 | 0.885 | 0.848 | 0.757 | 1 | 1.01 | 0.914 | 0.984 | 1.02
11 | LU99A | 0.953 | 0.829 | 0.53 | 0.551 | 0.707 | 0.681 | 0.983 | 0.845 | 0.937 | 0.789 | 0.909
12 | NCI-H650 | 1.1 | 1.24 | 0.98 | 1.08 | 0.957 | 0.623 | 0.968 | 0.915 | 0.84 | 0.846 | 
13 | NCI-H2347 | 0.988 | 0.535 | 0.285 | 0.377 | 0.356 | 0.371 | 1.05 | 1.01 | 0.932 | 1.02 | 0.94
14 | HARA | 0.861 | 0.947 | 0.674 | 0.86 | 0.503 | 0.375 | 0.935 | 0.972 | 0.96 | 0.928 | 0.657
15 | NCI-H2228 | 0.771 | 0.885 | 0.555 | 0.811 | 0.61 | 0.363 | 1.05 | 0.856 | 0.864 | 1.14 | 
16 | EKVX | 0.852 | 0.766 | 0.364 | 0.583 | 0.491 | 0.395 | 0.952 | 0.812 | 0.885 | 0.983 | 0.801

Row | Cell Line | relative viability (Trametinib; 0.0025 µM) | relative viability (Trametinib; 0.007906 µM) | relative viability (Trametinib; 0.02 µM, anchor plate) | relative viability (Trametinib; 0.025 µM) | relative viability (Trametinib; 0.07906 µM) | relative viability (Trametinib; 0.25 µM) | relative viability ([1]; 0.02 µM) | relative viability ([1]; 0.06325 µM) | relative viability ([1]; 0.6325 µM) | relative viability ([1]; 2 µM) | relative viability ([1]; 0.2 µM)
17 | HCC-827 | 0.999 | 0.958 | 0.508 | 0.92 | 0.738 | 0.609 | 0.94 | 0.978 | 1.11 | 1.06 | 
18 | NCI-H1755 | 0.886 | 0.879 | 0.773 | 0.83 | 0.885 | 0.842 | 0.968 | 0.991 | 0.914 | 0.891 | 1.05
19 | NCI-H661 | 1.01 | 0.975 | 0.575 | 0.899 | 0.799 | 0.724 | 0.999 | 0.986 | 1.06 | 0.986 | 0.985
20 | NCI-H1944 | 0.989 | 0.672 | 0.427 | 0.558 | 0.487 | 0.363 | 0.903 | 0.948 | 0.989 | 0.936 | 
21 | NCI-H23 | 0.876 | 0.831 | 0.417 | 0.349 | 0.433 | 0.264 | 0.802 | 0.849 | 1.03 | 0.986 | 0.685
22 | NCI-H1648 | 0.776 | 0.864 | 0.505 | 0.809 | 0.541 | 0.455 | 0.603 | 0.885 | 0.601 | 0.671 | 0.812
23 | NCI-H522 | 1.01 | 1.04 | 0.776 | 0.595 | 0.756 | 0.63 | 0.89 | 1.13 | 0.944 | 0.883 | 0.869
24 | HCC-366 | 0.959 | 0.969 | 0.373 | 0.796 | 0.669 | 0.395 | 1.01 | 1 | 1.1 | 1.02 | 0.923
25 | EBC-1 | 1 | 0.98 |  | 0.648 | 0.308 | 0.207 | 0.968 | 0.963 | 0.912 | 0.969 | 0.905
26 | ChaGo-K-1 | 0.999 | 0.921 | 0.917 | 0.951 | 0.861 | 0.764 | 0.991 | 1 | 1.02 | 0.996 | 0.784
27 | LCLC-97TM1 | 0.884 | 0.836 | 0.197 | 0.398 | 0.204 | 0.138 | 0.701 | 0.844 | 1.11 | 0.922 | 0.717
28 | NCI-H1299 | 1.04 | 1.04 |  | 0.897 | 0.818 | 0.584 | 1.01 | 1.01 | 1.05 | 1.02 | 1.02
29 | EMC-BAC-2 | 1.2 | 1.01 | 0.859 | 0.775 | 0.61 | 0.635 | 1.1 | 0.92 | 0.798 | 0.673 | 0.89
30 | NCI-H1623 | 0.839 | 0.74 |  | 0.552 | 0.569 | 0.523 | 0.815 | 1.02 | 0.85 | 0.912 | 0.735
31 | NCI-H441 | 0.959 | 0.908 | 0.522 | 0.667 | 0.605 | 0.246 | 1.19 | 0.935 | 1.01 | 1.02 | 1.08
32 | LCLC-103H | 0.92 | 0.869 | 0.672 | 0.814 | 0.697 | 0.685 | 0.963 | 0.933 | 0.98 | 0.959 | 0.976
